# Read-outs that look alike come from different tables or passages of the source.
# Experiments:
# [1] = tested on: TRE3G-GFP reporter gene; conditions: WT FKBP (MS2-FKBPx2), 48 hrs
# Method: HCT116 cells were transfected with TRE3G-GFP, dCas9, MS2-FKPB*x2, and TRE3G gRNA or NT gRNA. After 48 hrs of 10 nM SLF*-CEMa treatment, flow cytometry was performed and mean fluorescent value was collected. […] TRE3G-GFP, dCas9, MS2-FKBP*2, TRE3G gRNA or NT gRNA were transfected into HCT116 cells. The media was changed to media with 5 nM CEM207 together with 0 nM, 50 nM, 500 nM or 5000 nM of AP1867, respectively. After 48 hrs chemical exposure, flow cytometry was performed and the mean fluorescent value was measured in each group of cells. […] FIGS. 5D and 5E are dose curves of CEMa molecules activating the GFP reporter gene in HCT116 cells using WT FKBP and dCas9 as DNA binding module. HCT116 cells were transfected with dCas9, MS2-FKBPx2, TRE3G-GFP constructs, along with TRE3G gRNA or NT gRNA. Cells were treated with different concentrations of CEMa molecules for 48 hrs before flow cytometry was conducted. […] Error bars represent the standard deviation.
# To better understand the activity of SLF*-CEMa in the WT FKBP-based GFP reporter assay, a similar dose-response assay was conducted in HCT116 cells transfected with dCas9 and MS2-FKBPx2 (FIGS. 1D and 1E).
# Flow cytometry. All flow cytometry experiments were performed with Attune Nxt as previously described. […] Significance was determined by Student's t-test.
# [2] = tested on: CXCR4; experiment: CXCR4 mRNA activation in HCT116 stably expressing dCas9 and MS2-FKBPx2 (WT-FKBP), qRT-PCR; format: cell-based, human; conditions: FIG. 6, WT FKBP system, 48 hrs
# [3] = tested on: TRE3G-GFP reporter gene; experiment: TRE3G-GFP reporter gene activation in HCT116, dCas9 + MS2-FKBP*x2 (F36V) system, flow cytometry; format: cell-based, human; set-up: fold change, GFP: reference not given here; conditions: for fold change, GFP (Treated vs Non-Treated): FIG. 1E, 48 hours; for fold change, GFP: 48 hrs
# [4] = tested on: CXCR4; experiment: CXCR4 mRNA activation in HCT116 stably expressing dCas9 and MS2-FKBP*x2, qRT-PCR; format: cell-based, human; conditions: for fold change, CXCR4 mRNA (CEM Treated vs Non-Treated): 48 hrs; for fold change, CXCR4 mRNA (CXCR4 gRNA vs NT gRNA): FIG. 3B; for fold change, CXCR4 mRNA (CXCR4 gRNA vs NT gRNA) / fold change, CXCR4 mRNA (washout vs AP1867 competition) / fold change, CXCR4 mRNA (Compare to 0 h): CEM207 25 nM; for fold change, CXCR4 mRNA (washout vs AP1867 competition): FIG. 3D; for fold change, CXCR4 mRNA (Compare to 0 h): FIG. 7A
# Method in brief: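 HCT116 cells stably expressing dCas9 and MS2-FKBP*x2 with CXCR4 gRNA were treated with CEMs (screen at 5 nM; 1–50 nM range). CXCR4 mRNA measured by one-step qRT-PCR after 48 h, or at 12–96 h in time course. Reversibility tested by washout after 24 h, optionally with 20 μM AP1867.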
smiles,measurement,setting,value
"CC[C@H](C(=O)N1CCCC[C@H]1C(=O)O[C@H](CCc1ccc(OC)c(OC)c1)c1cccc(OCC(=O)NCCOCCOCCNC(=O)C[C@@H]2N=C(c3ccc(Cl)cc3)c3c(sc(C)c3C)-n3c(C)nnc32)c1)c1cc(OC)c(OC)c(OC)c1 [CEM207, (R)-1-(3-((14-((S)-4-(4-Chlorophenyl)-2,3,9-trimethyl-6H-thieno[3,2-f][1,2,4]triazolo[4,3-a][1,4]diazepin-6-yl)-2,13-dioxo-6,9-dioxa-3,12-diazatetradecyl)oxy)phenyl)-3-(3,4-dimethoxyphenyl) propyl(S)-1-((S)-2-(3,4,5-trimethoxyphenyl)butanoyl) piperidine-2-carboxylate]","fold change, GFP (Treated vs Non-Treated)","[1]; FIG. 5D, 10 nM",1.9 fold
same,"fold change, GFP (Treated vs Non-Treated)","[1]; FIG. 5D, 25 nM",6.5 fold
same,"fold change, GFP (Treated vs Non-Treated)","[1]; FIG. 5D, 50 nM",17.4 fold
same,"fold change, GFP (Treated vs Non-Treated)","[1]; FIG. 5D, 100 nM",20.8 fold
same,"fold change, GFP (Treated vs Non-Treated)","[1]; FIG. 5D, 200 nM",24.0 fold
same,"fold change, GFP (Treated vs Non-Treated)","[1]; FIG. 5D, 400 nM",27.2 fold
same,"fold change, GFP (Treated vs Non-Treated)","[1]; FIG. 5E, 10 nM",1.1 fold
same,"fold change, GFP (Treated vs Non-Treated)","[1]; FIG. 5E, 25 nM",1.1 fold
same,"fold change, GFP (Treated vs Non-Treated)","[1]; FIG. 5E, 50 nM",1.0 fold
same,"fold change, GFP (Treated vs Non-Treated)","[1]; FIG. 5E, 100 nM",1.1 fold
same,"fold change, GFP (Treated vs Non-Treated)","[1]; FIG. 5E, 200 nM",1.2 fold
same,"fold change, GFP (Treated vs Non-Treated)","[1]; FIG. 5E, 400 nM",1.3 fold
same,"fold change, CXCR4 mRNA (CXCR4 gRNA vs NT gRNA)",[2]; 50 nM,4.2 fold
same,"fold change, CXCR4 mRNA (CXCR4 gRNA vs NT gRNA)",[2]; 200 nM,9.1 fold
same,"fold change, GFP (Treated vs Non-Treated)","[3]; TRE3G gRNA, 0.25 nM",2.0 fold
same,"fold change, GFP (Treated vs Non-Treated)","[3]; TRE3G gRNA, 0.5 nM",9.1 fold
same,"fold change, GFP (Treated vs Non-Treated)","[3]; TRE3G gRNA, 0.75 nM",11.5 fold
same,"fold change, GFP (Treated vs Non-Treated)","[3]; TRE3G gRNA, 1 nM",12.8 fold
same,"fold change, GFP (Treated vs Non-Treated)","[3]; TRE3G gRNA, 2.5 nM",20.6 fold
same,"fold change, GFP (Treated vs Non-Treated)","[3]; TRE3G gRNA, 5 nM",24.0 fold
same,"fold change, GFP (Treated vs Non-Treated)","[3]; TRE3G gRNA, 7.5 nM",22.5 fold
same,"fold change, GFP (Treated vs Non-Treated)","[3]; TRE3G gRNA, 10 nM",21.4 fold
same,"fold change, GFP (Treated vs Non-Treated)","[3]; TRE3G gRNA, 25 nM",21.5 fold
same,"fold change, GFP (Treated vs Non-Treated)","[3]; TRE3G gRNA, 50 nM",22.3 fold
same,"fold change, GFP (Treated vs Non-Treated)","[3]; TRE3G gRNA, 75 nM",22.5 fold
same,"fold change, GFP (Treated vs Non-Treated)","[3]; TRE3G gRNA, 100 nM",21.9 fold
same,"fold change, GFP","[3]; FIG. 5A, NT gRNA, 10 nM",0.3 fold
same,"fold change, GFP","[3]; FIG. 5A, TRE3G gRNA, 10 nM",12.0 fold
same,"fold change, GFP","[3]; FIG. 5C, NT gRNA, 0.25 nM",1.1 fold
same,"fold change, GFP","[3]; FIG. 5C, NT gRNA, 0.5 nM",1.1 fold
same,"fold change, GFP","[3]; FIG. 5C, NT gRNA, 0.75 nM",1.1 fold
same,"fold change, GFP","[3]; FIG. 5C, NT gRNA, 1 nM",1.1 fold
same,"fold change, GFP","[3]; FIG. 5C, NT gRNA, 2.5 nM",1.2 fold
same,"fold change, GFP","[3]; FIG. 5C, NT gRNA, 5 nM",1.5 fold
same,"fold change, GFP","[3]; FIG. 5C, NT gRNA, 7.5 nM",1.5 fold
same,"fold change, GFP","[3]; FIG. 5C, NT gRNA, 10 nM",1.4 fold
same,"fold change, GFP","[3]; FIG. 5C, NT gRNA, 25 nM",1.6 fold
same,"fold change, GFP","[3]; FIG. 5C, NT gRNA, 50 nM",1.6 fold
same,"fold change, GFP","[3]; FIG. 5C, NT gRNA, 75 nM",1.5 fold
same,"fold change, GFP","[3]; FIG. 5C, NT gRNA, 100 nM",1.5 fold
same,"fold change, CXCR4 mRNA (CEM Treated vs Non-Treated)","[4]; FIG. 2D, CXCR4 gRNA, 0.5 nM",2.5 fold
same,"fold change, CXCR4 mRNA (CEM Treated vs Non-Treated)","[4]; FIG. 2D, CXCR4 gRNA, 1 nM",7.4 fold
same,"fold change, CXCR4 mRNA (CEM Treated vs Non-Treated)","[4]; FIG. 2D, CXCR4 gRNA, 5 nM",28.2 fold
same,"fold change, CXCR4 mRNA (CEM Treated vs Non-Treated)","[4]; FIG. 2D, CXCR4 gRNA, 25 nM",48.2 fold
same,"fold change, CXCR4 mRNA (CEM Treated vs Non-Treated)","[4]; FIG. 2D, CXCR4 gRNA, 50 nM",34.6 fold
same,"fold change, CXCR4 mRNA (CEM Treated vs Non-Treated)","[4]; FIG. 2D, NT gRNA, 0.5 nM",1.17 fold
same,"fold change, CXCR4 mRNA (CEM Treated vs Non-Treated)","[4]; FIG. 2D, NT gRNA, 1 nM",0.77 fold
same,"fold change, CXCR4 mRNA (CEM Treated vs Non-Treated)","[4]; FIG. 2D, NT gRNA, 5 nM",1.47 fold
same,"fold change, CXCR4 mRNA (CEM Treated vs Non-Treated)","[4]; FIG. 2D, NT gRNA, 25 nM",2.21 fold
same,"fold change, CXCR4 mRNA (CEM Treated vs Non-Treated)","[4]; FIG. 2D, NT gRNA, 50 nM",1.88 fold
same,CXCR4 activation compared to dCas9-p300,"[4]; FIG. 2D, concentrations above 5 nM",higher CXCR4 activation
same,"fold change, CXCR4 mRNA (CXCR4 gRNA vs NT gRNA)",[4]; 24 h,18.6 fold
same,"fold change, CXCR4 mRNA (CXCR4 gRNA vs NT gRNA)",[4]; 48 h,13.1 fold
same,"fold change, CXCR4 mRNA (CXCR4 gRNA vs NT gRNA)",[4]; 48 h AP1867 (washout with 20 μM AP1867 after 24 hrs),8.3 fold
same,"fold change, CXCR4 mRNA (CXCR4 gRNA vs NT gRNA)",[4]; 48 h wash (media washout after 24 hrs),10.5 fold
same,"fold change, CXCR4 mRNA (CXCR4 gRNA vs NT gRNA)",[4]; 72 h,6.8 fold
same,"fold change, CXCR4 mRNA (CXCR4 gRNA vs NT gRNA)",[4]; 72 h AP1867 (washout with 20 μM AP1867 after 24 hrs),4.2 fold
same,"fold change, CXCR4 mRNA (CXCR4 gRNA vs NT gRNA)",[4]; 72 h wash (media washout after 24 hrs),5.4 fold
same,"fold change, CXCR4 mRNA (CXCR4 gRNA vs NT gRNA)",[4]; 96 h AP1867 (washout with 20 μM AP1867 after 24 hrs),2.1 fold
same,"fold change, CXCR4 mRNA (CXCR4 gRNA vs NT gRNA)",[4]; 96 h wash (media washout after 24 hrs),4.3 fold
same,"fold change, CXCR4 mRNA (washout vs AP1867 competition)",[4]; 48 h,1.2 fold
same,"fold change, CXCR4 mRNA (washout vs AP1867 competition)",[4]; 72 h,2.4 fold
same,"fold change, CXCR4 mRNA (washout vs AP1867 competition)",[4]; 96 h,0.57 fold
same,"fold change, CXCR4 mRNA (Compare to 0 h)","[4]; NT gRNA, 12 h",0.1 fold
same,"fold change, CXCR4 mRNA (Compare to 0 h)","[4]; NT gRNA, 24 h",0.6 fold
same,"fold change, CXCR4 mRNA (Compare to 0 h)","[4]; NT gRNA, 48 h",0.7 fold
same,"fold change, CXCR4 mRNA (Compare to 0 h)","[4]; NT gRNA, 48 h AP1867 (washout with 20 μM AP1867 after 24 hrs)",0.7 fold
same,"fold change, CXCR4 mRNA (Compare to 0 h)","[4]; NT gRNA, 48 h wash (media washout after 24 hrs)",0.8 fold
same,"fold change, CXCR4 mRNA (Compare to 0 h)","[4]; NT gRNA, 72 h",0.6 fold
same,"fold change, CXCR4 mRNA (Compare to 0 h)","[4]; NT gRNA, 72 h AP1867 (washout with 20 μM AP1867 after 24 hrs)",0.3 fold
same,"fold change, CXCR4 mRNA (Compare to 0 h)","[4]; NT gRNA, 72 h wash (media washout after 24 hrs)",0.4 fold
same,"fold change, CXCR4 mRNA (Compare to 0 h)","[4]; NT gRNA, 96 h",0.5 fold
same,"fold change, CXCR4 mRNA (Compare to 0 h)","[4]; NT gRNA, 96 h AP1867 (washout with 20 μM AP1867 after 24 hrs)",0.6 fold
same,"fold change, CXCR4 mRNA (Compare to 0 h)","[4]; NT gRNA, 96 h wash (media washout after 24 hrs)",0.6 fold
same,CXCR4 mRNA expression after CEM washout in comparison to cells continuously treated,"[4]; FIGS. 3C and 3D, CEM203 50 nM or CEM207 25 nM for 24 hours, then media exchange, all time points",significantly lowered CXCR4 mRNA expression
same,time point of highest (peak) CXCR4 mRNA activation,"[4]; time course 12, 24, 48, 72, 96 hrs, CXCR4 gRNA",24 h

# From US20250177566A1, “USE OF CHEMICAL EPIGENETIC MODIFIERS TO MODULATE GENE EXPRESSION” (The University of North Carolina at Chapel Hill, priority 2022, published 2025)
